# Test results taken from patent US9765115B2, “Inhibitors of metastasis, methods of generating such inhibitors and their therapeutic applications” (Board of Supervisors of Louisiana State University acting …, priority 2011, dated 2017).
# Entries after “also recorded” stand apart in the source; their conditions may differ.
# Tests used:
# Type in all cases: cell-based
# PC-3CTRwt cells = test: Transepithelial electric resistance (TER)
# Protocol: Cells were plated on Transwell filters (0.4 μm pore size) and grown to confluency in complete medium (RPMI1640 containing 10% fetal bovine serum, 20 mM HEPES and antibiotics). TER of the cultures (in duplicate wells) was measured at several time intervals with EVOM volt-ohm meter as previously described (Shah et al, 2009). The readings were corrected for blank (TER values from the filter in bathing medium). The integrity and cell density of monolayers were carefully monitored.
# To examine the effect of calcitonin (CT) on tight junctions (TJs), the transepithelial electric resistance (TER) of polarized PC-3 cells expressing either the vector (PC-3V), CTRwt or CTRΔESS was monitored for 8 hours after CT stimulation (FIG. 2A). Polarized PC-3V, PC-3 CTRwt and PC-3 CTR-ΔESS cells were serum-starved for 4 hours, then treated with or without 50 nM CT. TER was measured with EVOM volt-ohm meter, and results expressed as Ωcm^2±SEM (n=6). […] Since PC-3 cells secrete CT, the expression of CTRwt may have activated CT-CTR axis causing almost 40% reduction of TER in PC-3CTRwt cells.
# The effect of CT on TJ functionality was tested by monitoring TER of PC-3CTRwt monolayers. […] Polarized PC-3-CTRwt cells were serum-starved for 4 hours, then treated with or without 50 nM CT. TER was measured with EVOM volt-ohm meter. The results are expressed as TER ±SEM (Ωcm^2±SEM; n=6). […] PCP was determined by diffusion of ˜4 kDa TRITC-conjugated dextran from the upper to the lower chamber in one hour. The results are expressed as μg/ml/hour of TRITC-Dextran diffused ±SEM (n=6; *p<0.05 (−CT v +CT, One way ANOVA and Newman-Keul's test)).
# To understand the significance of CT-induced, PKA-dependent disassembly of TJs in PC cell adhesion and invasion, the action of CT was examined on TER, PCP, cell adhesion and invasion in PC-3CTRwt cells in the presence/absence of mPKI. […] Similarly, mPKI abrogated the actions of CT on PCP and invasion (FIGS. 20B and 20C respectively). Next, the adhesion of PC-3CTRwt cells was examined on culture dishes.
# [1] = test system: LNCaP, DU-145 and PC-3M cells; test: Matrigel in vitro invasion assay; conditions: 50 nM CT, 48 h
# Protocol: Invasion experiments were conducted in Matrigel™ invasion chambers as previously described (Sabbisetti et al., 2005).
# Whether CT produces similar effects in LNCaP, PC-3M and DU-145 cell lines, which endogenously express CTR, was examined as shown in FIG. 1A. FIGS. 9A-9B depict the effect of CT on tight junction (TJ) disruption as measured using TER and PCP in the three prostate cancer cell lines—LNCaP, PC-3M, and DU-145. Cells were serum-starved for 4 hours, then treated with and without 50 nM CT, before measuring TER as described above. In FIG. 9B, cells were treated with and without 50 nM CT, and PCP determined by diffusion of ˜4 kDa TRITC-conjugated dextran from the upper to the lower chamber in one hour. The results are expressed as μg/ml/hour of TRITC-Dextran diffused ±SEM (n=6; *p<0.05 (−CT v +CT, One way ANOVA and Newman-Keul's test)). FIG. 9C depicts effects of CT on cell invasion in the same three cell lines—PC-3M, LNCaP, and DU145. Cells were added to upper insert of invasion chambers with or without 50 nM CT, and cells that passed through the Matrigel™ barrier were counted after 48 h. The results are expressed as mean number of invaded cells per 400× field ±SEM (n=6; *p<0.05).
# ZO-1 and claudin 3 = test: In vivo 32P phosphorylation and phosphoserine/phosphothreonine immunoblotting
# Protocol: Postconfluent cells cultured were serum-starved overnight, and then labeled with [^32P]orthophosphate (NEN/DuPont Chemicals) in phosphate-free serum-free Dulbecco's modified Eagle's medium for 3 hours at 37° C. The cells were then treated with calcitonin (CT) (50 nM for 10 min, 37° C.). When used, myristoylated PKA-inhibitory peptide (mPKI; 100 nM) was added 15 min prior to the addition of CT (50 nM). The cells were then washed with ice-cold phosphate-buffered saline, and lysed in 700 μl lysate buffer. The lysate was cleared by centrifugation for 10 min at 10,000×g. For immunoprecipitation, the supernatant was incubated overnight with primary antibody, and Protein A-Sepharose (40 μl, GE Healthcare) was added next morning. Washed immune complexes were fractionated on SDS-PAGE. The gels were either dried and exposed to film or transferred onto polyvinylidene difluoride membranes and immunoblotted as described above.
# The IPs were processed for immunoblotting with either anti-phosphoserine or anti-phosphothreonine antibodies followed by secondary antibody and developed with ECL To control for protein loading and transfer, the blots were stripped and reprobed with the immunoprecipitating antibody.
# To directly examine the involvement of PKA in CTR action on TJ disassembly, the in vivo incorporation of ^32PO4 in TJ proteins was examined. […] Arrows indicate location of ZO-1 and claudin-3. FIG. 17B depicts the total amount of ^32P-radioactivity of IP bands of ZO-1 and claudin from cells treated with CT (CT) and without treatment (Control, C). […] The results of occludin were inconclusive (data not shown).
# Next, the phosphorylated amino acids in these proteins were identified by probing ZO-1 and claudin 3 immunoprecipitates with antisera against phosphoserine, phosphothreonine and phosphotyrosine. […] The blots were probed by antibodies to phosphoserine (Ser), phosphothreonine (Thr), and phosphotyrosine (Tyr). […] There was complete absence of phosphotyrosines in either of these TJ proteins, consistent with the role of PKA in CTR-stimulated phosphorylation of ZO-1 and claudin 3.
# As shown above, the interaction of CTR with ZO-1 occurs between CTR-C PDZ-binding motif and PDZ3 domain of ZO-1. […] To examine the role of CTR-C PDZ-binding motif on phosphorylation of TJ proteins, the serine/threonine phosphorylation of ZO-1 and claudin 3 was analyzed in PC-3CTRwt and PC-3CTRΔESS cells. […] The immunoprecipitates were then probed with antibodies to phosphoserine. […] The immunoprecipitates were then probed with antibodies to phosphothreonine. The IPs of ZO-1 and claudin 3 were immunoblotted and probed for phosphoserine and phosphothreonine.
substance,measurement,setting,value
calcitonin [CT],TER,PC-3CTRwt cells; 50 nM CT,"decreased TER even further; also recorded: relatively rapid decline in TER; also recorded: steady, remarkable decline"
same,time at which decline in TER became apparent,PC-3CTRwt cells; 50 nM CT,≤ 10 min
same,time to remarkable drop in TER,PC-3CTRwt cells; 50 nM CT,≤ 30 min
same,TER at multiple CT concentrations,PC-3CTRwt cells; CT 10 and 100 nM,significant decrease
same,invasion,[1],significantly increased
same,32P incorporation in immunoprecipitated ZO-1 and claudin 3,ZO-1 and claudin 3; CT 50 nM,ten-fold increase
same,incorporation of 32PO4 in ZO-1 and claudin 3 (autoradiogram),"ZO-1 and claudin 3; CT 50 nM, 10 min",remarkable increase
same,serine/threonine phosphorylation of ZO-1 and claudin 3,"ZO-1 and claudin 3; CT 50 nM, PC-3CTRwt cells",stimulated phosphorylation of serines and threonines in ZO-1 and only threonines in claudin-3; also recorded: detectable increase
same,phosphorylation of ZO-1 and claudin 3,"ZO-1 and claudin 3; CT, PC-3CTRΔESS cells",did not induce phosphorylation
